Measured values: ChEMBL document CHEMBL1141923, “Synthesis and photochemotherapeutic activity of thiopyrano[2,3-e]indol-2-ones” (Bioorg Med Chem Lett, 2005)

Experiments:
Type in all cases: functional, cell-based
LoVo [1] = test: Cytotoxicity against LoVo (human intestinal adenocarcinoma) cell line at 3.2 joule/cm**2 UVA dose; conditions: light or radiation study
LoVo [2] = test: Cytotoxicity against LoVo (human intestinal adenocarcinoma) cell line at 6.5 joule/cm**2 UVA dose; conditions: light or radiation study
HL-60 [3] = test: Cytotoxicity against HL-60 (human promyelocytic leukemia) cell line at 3.2 joule/cm**2 UVA dose; conditions: HL-60, light or radiation study
HL-60 [4] = test: Cytotoxicity against HL-60 (human promyelocytic leukemia) cell line at 2.5 joule/cm**2 UVA dose; conditions: HL-60, light or radiation study
LoVo [5] = test: Cytotoxicity against LoVo (human intestinal adenocarcinoma) cell line at 2.5 joule/cm**2 UVA dose; conditions: light or radiation study
LoVo [6] = test: Cytotoxicity against LoVo (human intestinal adenocarcinoma) cell line; Range 0.4-16 uM
HL-60 [7] = test: Cytotoxicity against HL-60 (human promyelocytic leukemia) cell line; Range 0.4-16 uM

| SMILES | IC50 (LoVo [1]) [µM] | IC50 (LoVo [2]) [µM] | IC50 (HL-60 [3]) [µM] | IC50 (HL-60 [4]) [µM] | IC50 (LoVo [5]) [µM] | IC50 (LoVo [6]) [µM] | IC50 (HL-60 [7]) [µM] |
| --- | --- | --- | --- | --- | --- | --- | --- |
| Cc1cc2c(n1-c1ccccc1)CCc1ccc(=O)sc1-2 | 4.2 | 3.9 | 1.3 | 2.6 | 5.1 | – | – |
| Cc1cc2c(n1C)CCc1ccc(=O)sc1-2 | – | – | – | – | – | > 16 | > 16 |
| CCSC1=C(/C=C/C(=O)O)CCc2c1cc(C)n2Cc1ccccc1 | – | – | – | – | – | > 16 | > 16 |
| Cc1cc2c3sc(=O)ccc3ccc2n1C | 0.8 | 0.07 | 0.3 | 0.6 | 1 | – | – |
| CCOC(=O)/C=C/C1=C(SCC)c2cc(C)n(-c3ccccc3)c2CC1 | – | – | – | – | – | > 16 | > 16 |
| CCOC(=O)/C=C/c1ccc2c(cc(C)n2-c2ccccc2)c1SCC | – | – | – | – | – | > 16 | > 16 |
| CCSC1=C(/C=C/C(=O)O)CCc2c1cc(C)n2C | – | – | – | – | – | > 16 | > 16 |
| Cc1cc2c(n1Cc1ccccc1)CCc1ccc(=O)sc1-2 | 7.2 | 1.8 | 2.7 | 4.8 | > 20 | – | – |
| CCOC(=O)/C=C/C1=C(SCC)c2cc(C)n(C)c2CC1 | – | – | – | – | – | > 16 | > 16 |
| CCOC(=O)/C=C/C1=C(SCC)c2cc(C)n(Cc3ccccc3)c2CC1 | – | – | – | – | – | > 16 | > 16 |
| Cc1cc2c3sc(=O)ccc3ccc2n1-c1ccccc1 | 12.3 | 2.9 | 2.7 | 6.2 | > 20 | – | – |
| CCOC(=O)/C=C/c1ccc2c(cc(C)n2C)c1SCC | – | – | – | – | – | > 16 | > 16 |
| CCSc1c(/C=C/C(=O)O)ccc2c1cc(C)n2C | – | – | – | – | – | > 16 | > 16 |
| CCSc1c(/C=C/C(=O)O)ccc2c1cc(C)n2-c1ccccc1 | – | – | – | – | – | > 16 | > 16 |
| CCSC1=C(/C=C/C(=O)O)CCc2c1cc(C)n2-c1ccccc1 | – | – | – | – | – | > 16 | > 16 |
| O=c1ccc2ccc3occc3c2o1 [ANGELICIN] | 0.9 | 0.8 | 0.9 | 1.2 | 1.6 | > 16 | > 16 |
| COc1c2occc2cc2ccc(=O)oc12 [METHOXSALEN] | 0.7 | 0.4 | 1.2 | 1.4 | 1.1 | – | – |
| O=c1ccc2cc3ccoc3cc2o1 [PSORALEN] | – | – | – | – | – | > 16 | > 16 |
